Experimental findings from publication PMC11995724, “Antibiotic target discovery by integrated phenotypic and activity-based profiling of electrophilic fragments” (Cell chemical biology, 2025) are described below.

The nature of this data set: in vitro. As to conditions: human, hek293t cells.
The viability is a read-out of living cells in per cent, often relative to untreated cells. On to `Cc1ccc(NC(=O)C(C#N)=Cc2cccc(F)c2)cc1` [8-F11, 2-cyano-3-(3-fluorophenyl)-N-(4-methylphenyl)prop-2-enamide], for which the viability at 48 h, 25 µM was 85.7%. Consider `CC1CCCCC1NC(=O)C(C#N)=CC=Cc1ccccc1[N+](=O)[O-]` (stereo not shown) [8-F12, 2-cyano-N-(2-methylcyclohexyl)-5-(2-nitrophenyl)penta-2,4-dienamide], for which the viability at 48 h, 25 µM is 36%.

As for `COc1ccc(C=C(C#N)C(=O)Nc2cccc3c2C(=O)NC3=O)cc1` [8-F13, 2-cyano-N-(1,3-dioxo-2,3-dihydro-1H-isoindol-4-yl)-3-(4-methoxyphenyl)prop-2-enamide], the viability at 48 h, 25 µM is 119%. The figure for `N#CC(=Cc1ccc(OC(F)F)cc1)C(=O)Nc1nccs1` [8-F14, 2-cyano-3-[4-(difluoromethoxy)phenyl]-N-(1,3-thiazol-2-yl)prop-2-enamide] is 113%. Next, `COc1cc(C=C(C#N)C(=O)NC(C)C)cc(OC)c1` [8-F15, 2-cyano-3-(3,5-dimethoxyphenyl)-N-(propan-2-yl)prop-2-enamide]: 82.4%; `N#CC(=Cc1cccc([N+](=O)[O-])c1)C(=O)NCc1ccc(Cl)cc1` [8-F16, N-[(4-chlorophenyl)methyl]-2-cyano-3-(3-nitrophenyl)prop-2-enamide]: 0.958%. Next, `Cn1ccc(NC(=O)C(C#N)=Cc2ncccc2C(F)(F)F)n1` [8-F17, 2-cyano-N-(1-methyl-1H-pyrazol-3-yl)-3-[3-(trifluoromethyl)pyridin-2-yl]prop-2-enamide]: 95.2%; `Cc1cccc(C=C(C#N)C(=O)NC(C)c2ccccc2)c1` (stereo not shown) [8-F18, 2-cyano-3-(3-methylphenyl)-N-(1-phenylethyl)prop-2-enamide]: 36.3%.

As for `N#CC(=CC=Cc1ccccc1[N+](=O)[O-])C(N)=O` [8-F19, 2-cyano-5-(2-nitrophenyl)penta-2,4-dienamide], the viability at 48 h, 25 µM stood at 1.55%. Next, `N#CC(=Cc1ccc(-c2ccccc2Cl)o1)C(=O)N1CCCCC1` [8-F20, 3-[5-(2-chlorophenyl)furan-2-yl]-2-(piperidine-1-carbonyl)prop-2-enenitrile]: 66.6%; `N#CC(=Cc1cc([N+](=O)[O-])ccc1Cl)C(N)=O` [8-F21, 3-(2-chloro-5-nitrophenyl)-2-cyanoprop-2-enamide]: 101%; `N#CC(=Cc1cc2c(cc1[N+](=O)[O-])OCO2)C(=O)NC1CCCCC1` [8-F22, 2-cyano-N-cyclohexyl-3-(6-nitro-1,3-dioxaindan-5-yl)prop-2-enamide]: 87.7%. For `COc1ccc(C=C(C#N)C(=O)Nc2ccccc2[N+](=O)[O-])cc1` [8-G03, 2-cyano-3-(4-methoxyphenyl)-N-(2-nitrophenyl)prop-2-enamide], the viability at 48 h, 25 µM was 96.8%. Next, `CCc1ccc(NC(=O)C(C#N)=Cc2cccnc2)cc1` [8-G04, 2-cyano-N-(4-ethylphenyl)-3-(pyridin-3-yl)prop-2-enamide]: 86.1%. As for `CC1CN(C(=O)C(C#N)=Cc2ccc(OC(F)F)cc2)CC(C)O1` (stereo not shown) [8-G05, 3-[4-(difluoromethoxy)phenyl]-2-(2,6-dimethylmorpholine-4-carbonyl)prop-2-enenitrile], the viability at 48 h, 25 µM is 97.8%. Next, `Cc1c(C=C(C#N)C(=O)Nc2ccccn2)cc(C#N)n1C` [8-G06, 2-cyano-3-(5-cyano-1,2-dimethyl-1H-pyrrol-3-yl)-N-(pyridin-2-yl)prop-2-enamide]: 94.1%; `Cc1ccsc1C=C(C#N)C(=O)NC1CCCCC1C` (stereo not shown) [8-G07, 2-cyano-N-(2-methylcyclohexyl)-3-(3-methylthiophen-2-yl)prop-2-enamide]: 61.1%.

Consider `N#CC(=Cc1cc(F)ccc1F)C(=O)NC1CCCCC1` [8-G08, 2-cyano-N-cyclohexyl-3-(2,5-difluorophenyl)prop-2-enamide], for which the viability at 48 h, 25 µM amounted to 9.88%. Take `COc1ccc(C=C(C#N)C(=O)Nc2ccccc2OC)cc1` [8-G09, 2-cyano-N-(2-methoxyphenyl)-3-(4-methoxyphenyl)prop-2-enamide]: the viability at 48 h, 25 µM was found to be 80.4%. Next, `Cc1ccc(C=C(C#N)C(=O)NC2CCCCC2)cc1C` [8-G10, 2-cyano-N-cyclohexyl-3-(3,4-dimethylphenyl)prop-2-enamide]: 59.4%. As for `CCc1ccc(C=C(C#N)C(=O)Nc2cc(C)c(Cl)cc2OC)cc1` [8-G11, N-(4-chloro-2-methoxy-5-methylphenyl)-2-cyano-3-(4-ethylphenyl)prop-2-enamide], the viability at 48 h, 25 µM came to 92%.

In the case of `CC(C)NC(=O)C(C#N)=Cc1ccc(OC(C)C)cc1` [8-G12, 2-cyano-N-(propan-2-yl)-3-[4-(propan-2-yloxy)phenyl]prop-2-enamide], the viability at 48 h, 25 µM turned out to be 64.9%. Take `N#CC(=Cc1cccs1)C(=O)Nc1nccs1` [8-G13, 2-cyano-N-(1,3-thiazol-2-yl)-3-(thiophen-2-yl)prop-2-enamide]: the viability at 48 h, 25 µM is 110%. For `Cc1cc(C=C(C#N)C(=O)NCc2ccccc2)c(C)n1C1CC1` [8-G14, N-benzyl-2-cyano-3-(1-cyclopropyl-2,5-dimethyl-1H-pyrrol-3-yl)prop-2-enamide], the viability at 48 h, 25 µM was 74%.

As for `CSc1ccc(C=C(C#N)C(=O)Nc2c(C)cc(C)cc2C)cc1` [8-G15, 2-cyano-3-[4-(methylsulfanyl)phenyl]-N-(2,4,6-trimethylphenyl)prop-2-enamide], the viability at 48 h, 25 µM worked out at 111%. Next, `Cc1ccc(C=C(C#N)C(=O)Nc2ccccc2C)cc1` [8-G16, 2-cyano-N-(2-methylphenyl)-3-(4-methylphenyl)prop-2-enamide]: 118%; `N#CC(=Cc1ccccc1)C(=O)NC1CCCCCCC1` [8-G17, 2-cyano-N-cyclooctyl-3-phenylprop-2-enamide]: 46.6%; `COc1cccc(NC(=O)C(C#N)=Cc2ccc(C#N)cc2)c1` [8-G18, 2-cyano-3-(4-cyanophenyl)-N-(3-methoxyphenyl)prop-2-enamide]: 60.2%. Next, `COc1ccc(C=C(C#N)C(=O)Nc2nccs2)cc1O` [8-G19, 2-cyano-3-(3-hydroxy-4-methoxyphenyl)-N-(1,3-thiazol-2-yl)prop-2-enamide]: 85%; `CC1(C)Cc2cc(C=C(C#N)C(=O)Nc3ccccc3F)ccc2O1` [8-G20, 2-cyano-3-(2,2-dimethyl-2,3-dihydro-1-benzofuran-5-yl)-N-(2-fluorophenyl)prop-2-enamide]: 68%.

As for `CCOc1ccccc1NC(=O)C(C#N)=Cc1c(F)cccc1F` [8-G21, 2-cyano-3-(2,6-difluorophenyl)-N-(2-ethoxyphenyl)prop-2-enamide], the viability at 48 h, 25 µM is 78.1%.

For the compound `CCOc1ccc(C=C(C#N)C(=O)N2CCc3sccc3C2)cc1` [8-G22, 3-(4-ethoxyphenyl)-2-{4H,5H,6H,7H-thieno[3,2-c]pyridine-5-carbonyl}prop-2-enenitrile], the viability at 48 h, 25 µM is 61.5%. For `N#CC(=Cc1ccc2c(c1)OCCO2)C(=O)NCc1ccccc1` [8-H03, N-benzyl-2-cyano-3-(2,3-dihydro-1,4-benzodioxin-6-yl)prop-2-enamide], the viability at 48 h, 25 µM worked out at 127%. In the case of `N#CC(=Cc1cccc(F)c1F)C(=O)NC(N)=O` [8-H04, {2-cyano-2-[(2,3-difluorophenyl)methylidene]acetyl}urea], the viability at 48 h, 25 µM came out at 89.9%.
